20 compounds from patent publication US20180099931A1 (AbbVie S.à.r.l., priority 2016, published 2018) can be followed below.

Like-named read-outs stand apart in the source and are kept apart here.

The target in the test is T1, F508delCFTR (Homo sapiens, UniProt P13569, DEL508-508).
T1 construct: expressed in transfected cells; host or cells: CFBE41o- human lung-derived epithelial cells (CFBE4lo-F508delCFTR-HRP), doxycycline-inducible
Briefly: Cell Surface Expression-Horse Radish Peroxidase (CSE-HRP) Assay.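 As to Maximum % activity (with co-corrector): co-corrector and positive control are both the same reference corrector at 2 µM.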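 As to Maximum % activity (without co-corrector): percent of the 2 µM on-plate positive control corrector response above DMSO.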 It counts as cell-based. The following applies: for Maximum % activity (with co-corrector): with co-corrector (2 μM); for Maximum % activity (with co-corrector) / Emax: maximum at any tested concentration, normalized to on-plate positive control; for Emax: without co-corrector, read-out: Maximum % activity (without co-corrector). How it is done: Cell Surface Expression-Horse Radish Peroxidase (CSE-HRP) Assay
The development was achieved by expressing the F508delCFTR mutation along with a horseradish peroxidase (HRP) in the fourth exofacial loop, and then measuring the HRP activity using luminescence readout from these cells, CFBE4lo-F508delCFTR-HRP, that were incubated overnight with the test corrector compounds, either without or with the co-corrector. […] The test compounds were then added either without or with a co-corrector at the required concentrations and further incubated for 18-24 hours at 33° C. The highest concentration tested was 20 μM with an 8-point concentration response curve using a 3-fold dilution in both the test compound without or with the co-corrector. Three replicate plates were run to determine one EC50. All plates contained negative controls (dimethyl sulfoxide, DMSO) and positive control (2 μM of 3-[(2R,4R)-4-({[1-(2,2-difluoro-1,3-benzodioxol-5-yl)cyclopropyl]carbonyl}amino)-7-methoxy-3,4-dihydro-2H-chromen-2-yl]benzoic acid) as well as on-plate concentration response of the positive control. […] The raw counts from the experiment were analyzed using Accelrys® Assay Explorer v3.3.
1−[3*SDPositive Control+3*SDNegative Control/Absolute(MeanPositive Control−MeanNegative Control)]
wherein “SD” is standard deviation.
The % activity measured at each of the 8 test concentrations of the test compound added either without or with a co-corrector (2 μM of 3-[(2R,4R)-4-({[1-(2,2-difluoro-1,3-benzodioxol-5-yl)cyclopropyl]carbonyl}amino)-7-methoxy-3,4-dihydro-2H-chromen-2-yl]benzoic acid) was normalized to the on-plate positive control using the following formulae:
% activity(Test compound without co-corrector)=[(test compound without co-corrector response−DMSO response)/(positive control response−DMSO response)]*100
% activity(Test compound with co-corrector)=[(test compound with co-corrector response−DMSO response)/(positive control response−DMSO response)]*100
The maximum % activity achieved for the test compound either without or with a co-corrector at any tested concentration is presented in Table 4 along with the respective EC50's calculated using the following general sigmoidal curve with variable Hill slope equation (described as Model 42 in the Accelrys® Assay Explorer v3.3 software):
General sigmoidal curve with concentration, response, top, bottom, EC50 and Hill slope. This model describes a sigmoidal curve with an adjustable baseline, a. The equation can be used to fit curves where response is either increasing or decreasing with respect to the independent variable, “x”.
“x” is a concentration of drug under test. “y” is the response. “a” is the maximum response, and “d” is the minimum response “c” is the inflection point (EC50) for the curve. That is, “y” is halfway between the lower and upper asymptotes when x=c. “b” is the slope-factor or Hill coefficient. The sign of b is positive when the response increases with increasing dose and is negative when the response decreases with increasing dose (inhibition).

Setting [1] is: test compound without co-corrector, read-out: EC50 (without co-corrector).
[2] abbreviates: with co-corrector (2 μM of 3-[(2R,4R)-4-({[1-(2,2-difluoro-1,3-benzodioxol-5-yl)cyclopropyl]carbonyl}amino)-7-methoxy-3,4-dihydro-2H-chromen-2-yl]benzoic acid), read-out: EC50 (with co-corrector).

T1 sequence (P13569 with tags, fused parts or gaps DEL508-508): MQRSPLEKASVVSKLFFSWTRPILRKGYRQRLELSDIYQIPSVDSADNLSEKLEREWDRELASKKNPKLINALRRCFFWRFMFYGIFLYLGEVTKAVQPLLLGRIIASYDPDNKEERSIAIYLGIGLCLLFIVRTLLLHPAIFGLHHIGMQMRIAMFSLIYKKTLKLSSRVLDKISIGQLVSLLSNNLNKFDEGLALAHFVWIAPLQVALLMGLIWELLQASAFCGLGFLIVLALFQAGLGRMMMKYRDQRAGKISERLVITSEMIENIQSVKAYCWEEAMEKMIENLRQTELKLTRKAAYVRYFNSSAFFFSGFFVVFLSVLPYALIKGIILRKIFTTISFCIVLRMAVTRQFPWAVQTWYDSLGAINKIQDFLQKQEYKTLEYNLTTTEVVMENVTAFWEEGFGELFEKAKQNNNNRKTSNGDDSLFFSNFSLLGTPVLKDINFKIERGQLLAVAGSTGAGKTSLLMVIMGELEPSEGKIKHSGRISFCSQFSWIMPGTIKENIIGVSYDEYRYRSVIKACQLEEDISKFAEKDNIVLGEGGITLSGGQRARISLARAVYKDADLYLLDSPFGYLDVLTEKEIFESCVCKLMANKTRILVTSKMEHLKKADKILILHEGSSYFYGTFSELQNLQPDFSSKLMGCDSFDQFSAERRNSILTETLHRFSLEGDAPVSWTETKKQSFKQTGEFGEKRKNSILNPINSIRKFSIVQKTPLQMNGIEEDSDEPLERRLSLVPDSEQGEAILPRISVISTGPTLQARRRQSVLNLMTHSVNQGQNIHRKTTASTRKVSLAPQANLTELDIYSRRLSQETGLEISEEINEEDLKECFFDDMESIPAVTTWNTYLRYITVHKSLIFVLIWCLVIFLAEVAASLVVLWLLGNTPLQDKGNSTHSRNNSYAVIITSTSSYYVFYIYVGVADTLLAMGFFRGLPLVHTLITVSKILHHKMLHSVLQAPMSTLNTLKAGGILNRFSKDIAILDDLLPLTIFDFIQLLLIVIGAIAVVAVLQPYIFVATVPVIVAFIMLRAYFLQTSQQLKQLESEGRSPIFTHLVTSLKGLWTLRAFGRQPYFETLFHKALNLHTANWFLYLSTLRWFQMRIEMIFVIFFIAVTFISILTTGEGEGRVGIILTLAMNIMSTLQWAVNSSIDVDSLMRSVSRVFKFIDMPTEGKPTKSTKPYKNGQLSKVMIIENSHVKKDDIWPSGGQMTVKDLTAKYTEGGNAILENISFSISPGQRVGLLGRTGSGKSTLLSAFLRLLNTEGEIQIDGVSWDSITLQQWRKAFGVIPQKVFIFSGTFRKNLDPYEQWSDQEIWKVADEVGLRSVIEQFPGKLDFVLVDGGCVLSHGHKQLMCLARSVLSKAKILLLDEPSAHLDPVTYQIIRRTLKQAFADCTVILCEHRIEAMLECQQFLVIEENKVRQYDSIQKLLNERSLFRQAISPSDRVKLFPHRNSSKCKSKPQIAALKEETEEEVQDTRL

Turning to `Cc1cc(C(F)(F)F)cc(N[C@@H]2[C@@H](C(C)(C)C)[C@H](C(=O)O)N(C(=O)C3CCCCC3)[C@@H]2c2ccccc2)n1` (racemic) [Example 1, rac-(2R,3R,4R,5R)-3-tert-butyl-1-(cyclohexanecarbonyl)-4-{[6-methyl-4-(trifluoromethyl)pyridin-2-yl]amino}-5-phenylpyrrolidine-2-carboxylic acid], the “Maximum % activity (with co-corrector)” value is given as “+++ (≥350)” and the Emax was less than 100%. In addition, under setting [1], the EC50 was in the range of 1 to 10 µM. Besides, the EC50 under setting [2] was in the range of 1 to 10 µM.
In the case of `COc1cc(C(F)(F)F)cc(N[C@@H]2[C@@H](C(C)(C)C)[C@H](C(=O)O)N(C(=O)C3CCCCC3)[C@@H]2c2ccccc2)n1` (racemic) [Example 2, rac-(2R,3R,4R,5R)-3-tert-butyl-1-(cyclohexanecarbonyl)-4-{[6-methoxy-4-(trifluoromethyl)pyridin-2-yl]amino}-5-phenylpyrrolidine-2-carboxylic acid], the “Maximum % activity (with co-corrector)” value was “+++ (≥350)” and the Emax was less than 100%. Also, under setting [1], the EC50 fell in the range of 1 to 10 µM. Moreover, the EC50 under setting [2] was 1 to 10 µM.
For the compound `COC(C)(C)[C@@H]1[C@@H](Nc2cc(C(F)(F)F)cc(C)n2)[C@@H](c2ccccc2)N(C(=O)C2CCCCC2)[C@H]1C(=O)O` (racemic) [Example 5, rac-(2R,3R,4R,5R)-1-(cyclohexanecarbonyl)-3-(2-methoxypropan-2-yl)-4-{[6-methyl-4-(trifluoromethyl)pyridin-2-yl]amino}-5-phenylpyrrolidine-2-carboxylic acid], the “Maximum % activity (with co-corrector)” value is reported as “+++ (≥350)” and the Emax was less than 100%. In addition, under setting [1], the EC50 fell in the range of 1 to 10 µM. Also, the EC50 under setting [2] was 1 to 10 µM.
Consider `COc1ccc(C(F)(F)F)cc1CN[C@@H]1[C@@H](C(C)(C)OC)[C@H](C(=O)O)N(C(=O)C2CCCCC2)[C@@H]1c1ccccc1` (racemic) [Example 6, rac-(2R,3R,4R,5R)-1-(cyclohexanecarbonyl)-3-(2-methoxypropan-2-yl)-4-({[2-methoxy-5-(trifluoromethyl)phenyl]methyl}amino)-5-phenylpyrrolidine-2-carboxylic acid], for which the “Maximum % activity (with co-corrector)” value is “+++ (≥350)” and the Emax was greater than 200%. Further, the EC50 under setting [1] lay in the range of 1 to 10 µM. Moreover, the 50% effective concentration (EC50) under setting [2] fell in the range of 1 to 10 µM.
With `COc1cc(OC)nc(N[C@@H]2[C@@H](C(C)(C)C)[C@H](C(=O)O)N(C(=O)C3CCCCC3)[C@@H]2c2ccccc2)n1` (racemic) [Example I-1], the “Maximum % activity (with co-corrector)” value is “+++ (≥350)” and the Emax is less than 100%. Besides, the 50% effective concentration (EC50) under setting [1] lay within 1 to 10 µM. Under setting [2], the EC50 fell in the range of 1 to 10 µM.
As to `COc1cc(Cl)nc(N[C@@H]2[C@@H](C(C)(C)C)[C@H](C(=O)O)N(C(=O)C3CCCCC3)[C@@H]2c2ccccc2)n1` (racemic) [Example I-2], the “Maximum % activity (with co-corrector)” value is reported as “+++ (≥350)” and the Emax was less than 100%. In addition, the EC50 under setting [1] lay in the range of 1 to 10 µM. In addition, under setting [2], the EC50 fell in the range of 1 to 10 µM.
In the case of `CC(N[C@@H]1[C@@H](C(C)(C)C)[C@H](C(=O)O)N(C(=O)C2CCCCC2)[C@@H]1c1ccccc1)c1ccc2c(c1)OC(F)(F)O2` (mixture of isomers) [Example I-3], the “Maximum % activity (with co-corrector)” value is “++ (≥150 and <350)”; the Emax was less than 100%. The half-maximal effective concentration (EC50) under setting [1] is greater than 10 µM. The EC50 under setting [2] fell in the range of 1 to 10 µM.
Turning to `COc1c(CN[C@@H]2[C@@H](C(C)(C)C)[C@H](C(=O)O)N(C(=O)C3CCCCC3)[C@@H]2c2ccccc2)c(C)nn1C` (racemic) [Example I-4], the “Maximum % activity (with co-corrector)” value is “+ (<150)” and the Emax is less than 100%. Further, the EC50 under setting [1] is greater than 10 µM. The EC50 under setting [2] fell in the range of 1 to 10 µM.
Taken in the same sequence, the figures for `CC(C)(C)[C@@H]1[C@@H](Nc2nccc(C(F)(F)F)n2)[C@@H](c2ccccc2)N(C(=O)C2CCCCC2)[C@H]1C(=O)O` (racemic) [Example I-5] were “+++ (≥350)”, less than 100%, 1 to 10 µM and 1 to 10 µM.
Consider `COc1ccc(C(F)(F)F)cc1CN[C@@H]1[C@@H](C(C)(C)C)[C@H](C(=O)O)N(C(=O)C2CCCCC2)[C@@H]1c1ccccc1` (racemic) [Example I-6], for which the “Maximum % activity (with co-corrector)” value was “+++ (≥350)” and the Emax is greater than 200%. The EC50 under setting [1] was in the range of 1 to 10 µM. Also, the EC50 under setting [2] is 1 to 10 µM.
Turning to `Cc1cc(C(F)(F)F)cc(N[C@@H]2[C@@H](C3CC3)[C@H](C(=O)O)N(C(=O)C3CCCCC3)[C@@H]2c2ccccc2)n1` (racemic) [Example I-7], the “Maximum % activity (with co-corrector)” value was “++ (≥150 and <350)”; the Emax is less than 100%. The EC50 under setting [1] was in the range of 1 to 10 µM. Further, under setting [2], the 50% effective concentration (EC50) lay within 1 to 10 µM.
With `COc1ccc(C(F)(F)F)cc1C(C)N[C@@H]1[C@@H](C(C)(C)C)[C@H](C(=O)O)N(C(=O)C2CCCCC2)[C@@H]1c1ccccc1` (mixture of isomers) [Example I-8], the “Maximum % activity (with co-corrector)” value was “++ (≥150 and <350)”; the Emax is less than 100%. The concentration for a half-maximal effect (EC50) under setting [1] was in the range of 1 to 10 µM. The concentration giving a half-maximal response (EC50) under setting [2] lay in the range of 1 to 10 µM.
Consider `COc1cc(N[C@H]2[C@H](C(C)(C)C)[C@@H](C(=O)O)N(C(=O)C3CCCCC3)[C@H]2c2ccccc2)nc(OC)n1` (racemic) [Example I-9], for which the “Maximum % activity (with co-corrector)” value is “++ (≥150 and <350)”; the Emax is less than 100%. The concentration giving a half-maximal response (EC50) under setting [1] is greater than 10 µM. Besides, the EC50 under setting [2] lay within 1 to 10 µM.
Consider `COc1cc(C(F)(F)F)cc(N[C@@H]2[C@@H](C(C)(C)C)[C@H](C(=O)O)N(C(=O)OC(C)C)[C@@H]2c2ccccc2)n1` (racemic) [Example I-10], for which the “Maximum % activity (with co-corrector)” value is recorded as “+++ (≥350)” and the Emax was less than 100%. Further, the 50% effective concentration (EC50) under setting [1] lay in the range of 1 to 10 µM. For the same compound, under setting [2], the EC50 was in the range of 1 to 10 µM.
In the case of `CC(C)(C)[C@@H]1[C@@H](NCc2ccccc2OC(F)F)[C@@H](c2ccccn2)N(C(=O)C2CCCCC2)[C@H]1C(=O)O` (racemic) [Example I-11], the “Maximum % activity (with co-corrector)” value was “++ (≥150 and <350)”; the Emax is less than 100%. In addition, the concentration for a half-maximal effect (EC50) under setting [1] lay in the range of 1 to 10 µM. Besides, under setting [2], the EC50 was 1 to 10 µM.
For `COc1ccc(Cl)cc1CN[C@@H]1[C@@H](C(C)(C)C)[C@H](C(=O)O)N(C(=O)OC(C)C)[C@@H]1c1ccccc1` (racemic) [Example I-12], the “Maximum % activity (with co-corrector)” value is listed as “+++ (≥350)” and the Emax was greater than 200%. Moreover, under setting [1], the EC50 was 1 to 10 µM. In addition, under setting [2], the concentration giving a half-maximal response (EC50) fell in the range of 1 to 10 µM.
On to `Cc1cc(C(F)(F)F)nc(N[C@@H]2[C@@H](C(C)(C)C)[C@H](C(=O)O)N(C(=O)OC(C)C)[C@@H]2c2ccccc2)n1` (racemic) [Example I-13], for which the “Maximum % activity (with co-corrector)” value was “++ (≥150 and <350)”; the Emax is less than 100%. The concentration giving a half-maximal response (EC50) under setting [1] lay in the range of 1 to 10 µM. Besides, the EC50 under setting [2] lay within 1 to 10 µM.
With `COc1ccc(OC(F)F)c(CN[C@@H]2[C@@H](C(C)(C)C)[C@H](C(=O)O)N(C(=O)C3CCCCC3)[C@@H]2c2ccccc2)c1` (racemic) [Example I-14], the “Maximum % activity (with co-corrector)” value was “++ (≥150 and <350)”; the Emax is less than 100%. Besides, the half-maximal effective concentration (EC50) under setting [1] is greater than 10 µM. Also, under setting [2], the EC50 lay in the range of 1 to 10 µM.
As for `COc1ncc(C(F)(F)F)cc1N[C@@H]1[C@@H](C(C)(C)C)[C@H](C(=O)O)N(C(=O)C2CCCCC2)[C@@H]1c1ccccc1` (racemic) [Example I-15], the “Maximum % activity (with co-corrector)” value is given as “+++ (≥350)” and the Emax was less than 100%. The EC50 under setting [1] was less than 1 µM. Besides, the EC50 under setting [2] is less than 1 µM.
For `COc1cccc([C@@H]2[C@H](NCc3ccccc3OC(F)F)[C@@H](C(C)(C)C)[C@H](C(=O)O)N2C(=O)C2CCCCC2)n1` (racemic) [Example I-16], the “Maximum % activity (with co-corrector)” value is “+++ (≥350)” and the Emax was less than 100%. Besides, under setting [1], the concentration for a half-maximal effect (EC50) lay within 1 to 10 µM. Besides, under setting [2], the half-maximal effective concentration (EC50) lay within 1 to 10 µM.
